# System: 299254-011-R-J1-PDC complex spheroid viability
# Test: Anticancer human tumor 299254-011-R-J1-PDC patient-derived melanoma cell line growth inhibition [POLQ]
# Settings: for IC50: curve of first compound; for viability, T/C: stronger effect = lower value
# Procedure, shortened: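 PDC + HUVEC + MSC complex spheroids; POLQ inhibitors ± partner drugs; top conc. at/near clinical Cmax, else 10 microM (SN-38 1 microM), half-log dilutions; 37 degrees C, 5% CO2.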
# [1] = second compound 0.0316 µM, first compound 0.0316 µM
# [2] = second compound 0.0316 µM, first compound 0.1 µM
# [3] = second compound 0.0316 µM, first compound 0.316 µM
# [4] = second compound 0.0316 µM, first compound 1 µM
# [5] = second compound 0.0316 µM, first compound 3.16 µM
# [6] = second compound 0.0316 µM, first compound 10 µM
# [7] = second compound 0.1 µM, first compound 0.0316 µM
# [8] = second compound 0.1 µM, first compound 0.1 µM
# [9] = second compound 0.1 µM, first compound 0.316 µM
# [10] = second compound 0.1 µM, first compound 1 µM
# [11] = second compound 0.1 µM, first compound 3.16 µM
# [12] = second compound 0.1 µM, first compound 10 µM
# [13] = second compound 0.316 µM, first compound 0.0316 µM
# [14] = second compound 0.316 µM, first compound 0.1 µM
# [15] = second compound 0.316 µM, first compound 0.316 µM
# [16] = second compound 0.316 µM, first compound 1 µM
# [17] = second compound 0.316 µM, first compound 3.16 µM
# [18] = second compound 0.316 µM, first compound 10 µM
# [19] = second compound 1 µM, first compound 0.0316 µM
# [20] = second compound 1 µM, first compound 0.1 µM
# [21] = second compound 1 µM, first compound 0.316 µM
# [22] = second compound 1 µM, first compound 1 µM
# [23] = second compound 1 µM, first compound 3.16 µM
# [24] = second compound 1 µM, first compound 10 µM
# [25] = second compound 3.16 µM, first compound 0.0316 µM
# [26] = second compound 3.16 µM, first compound 0.1 µM
# [27] = second compound 3.16 µM, first compound 0.316 µM
# [28] = second compound 3.16 µM, first compound 1 µM
# [29] = second compound 3.16 µM, first compound 3.16 µM
# [30] = second compound 3.16 µM, first compound 10 µM
# [31] = second compound 10 µM, first compound 0.0316 µM
# [32] = second compound 10 µM, first compound 0.1 µM
# [33] = second compound 10 µM, first compound 0.316 µM
# [34] = second compound 10 µM, first compound 1 µM
# [35] = second compound 10 µM, first compound 3.16 µM
# [36] = second compound 10 µM, first compound 10 µM
# 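Also: spheroids exposed to drugs for one week before measurement.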
# 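For viability, T/C in this document: percent viability relative to DMSO vehicle control taken as 100%.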
smiles,measurement,setting,value
COc1cc2cc(C(=O)CCC(=O)O)sc2cc1OC + COC1C(OC(N)=O)C(O)C(Oc2ccc3c(O)c(NC(=O)c4ccc(O)c(CC=C(C)C)c4)c(=O)oc3c2C)OC1(C)C,IC50,second compound 0.0316 µM,> 10000 nM
same,IC50,second compound 0.1 µM,> 10000 nM
same,IC50,second compound 0.316 µM,> 10000 nM
same,IC50,second compound 1 µM,> 10000 nM
same,IC50,second compound 3.16 µM,> 10000 nM
same,IC50,second compound 10 µM,> 10000 nM
same,"viability, T/C",[1],112%
same,"viability, T/C",[2],98.3%
same,"viability, T/C",[3],106%
same,"viability, T/C",[4],100%
same,"viability, T/C",[5],113%
same,"viability, T/C",[6],102%
same,"viability, T/C",[7],95.8%
same,"viability, T/C",[8],109%
same,"viability, T/C",[9],101%
same,"viability, T/C",[10],116%
same,"viability, T/C",[11],99.2%
same,"viability, T/C",[12],114%
same,"viability, T/C",[13],112%
same,"viability, T/C",[14],93.1%
same,"viability, T/C",[15],104%
same,"viability, T/C",[16],110%
same,"viability, T/C",[17],113%
same,"viability, T/C",[18],109%
same,"viability, T/C",[19],91.8%
same,"viability, T/C",[20],104%
same,"viability, T/C",[21],104%
same,"viability, T/C",[22],109%
same,"viability, T/C",[23],104%
same,"viability, T/C",[24],125%
same,"viability, T/C",[25],108%
same,"viability, T/C",[26],96%
same,"viability, T/C",[27],94%
same,"viability, T/C",[28],110%
same,"viability, T/C",[29],112%
same,"viability, T/C",[30],108%
same,"viability, T/C",[31],103%
same,"viability, T/C",[32],104%
same,"viability, T/C",[33],95%
same,"viability, T/C",[34],107%
same,"viability, T/C",[35],110%
same,"viability, T/C",[36],97.5%
COc1cccc2c1C(=O)c1c(O)c3c(c(O)c1C2=O)CC(O)(C(=O)CO)CC3OC1CC(N)C(O)C(C)O1 (stereo not drawn) + Cc1cccc(N(C)C(=O)C2C(O)CCN2c2nc(C)cc(C(F)(F)F)c2C#N)c1,IC50,second compound 0.0316 µM,565 nM
same,IC50,second compound 0.1 µM,803 nM
same,IC50,second compound 0.316 µM,763 nM
same,IC50,second compound 1 µM,670 nM
same,IC50,second compound 3.16 µM,567 nM
same,IC50,second compound 10 µM,352 nM
same,"viability, T/C",[1],111%
same,"viability, T/C",[2],77.3%
same,"viability, T/C",[3],64.9%
same,"viability, T/C",[4],44.1%
same,"viability, T/C",[5],12.2%
same,"viability, T/C",[6],0.75%
same,"viability, T/C",[7],83.7%
same,"viability, T/C",[8],75.8%
same,"viability, T/C",[9],77.4%
same,"viability, T/C",[10],42.9%
same,"viability, T/C",[11],11.7%
same,"viability, T/C",[12],0.68%
same,"viability, T/C",[13],97.7%
same,"viability, T/C",[14],83.2%
same,"viability, T/C",[15],75.2%
same,"viability, T/C",[16],43.8%
same,"viability, T/C",[17],11.4%
same,"viability, T/C",[18],1.03%
same,"viability, T/C",[19],105%
same,"viability, T/C",[20],89.8%
same,"viability, T/C",[21],61.7%
same,"viability, T/C",[22],48.6%
same,"viability, T/C",[23],12%
same,"viability, T/C",[24],0.75%
same,"viability, T/C",[25],100%
same,"viability, T/C",[26],74.8%
same,"viability, T/C",[27],68.8%
same,"viability, T/C",[28],38.9%
same,"viability, T/C",[29],8.88%
same,"viability, T/C",[30],0.51%
same,"viability, T/C",[31],102%
same,"viability, T/C",[32],74.6%
same,"viability, T/C",[33],59.9%
same,"viability, T/C",[34],19.8%
same,"viability, T/C",[35],0.75%
same,"viability, T/C",[36],0.31%
Nc1ccn(C2OC(CO)C(O)C2(F)F)c(=O)n1 (stereo not drawn) + Cc1cccc(N(C)C(=O)C2C(O)CCN2c2nc(C)cc(C(F)(F)F)c2C#N)c1,IC50,second compound 0.0316 µM,65.3 nM
same,IC50,second compound 0.1 µM,73.7 nM
same,IC50,second compound 0.316 µM,74.2 nM
same,IC50,second compound 1 µM,78.7 nM
same,IC50,second compound 3.16 µM,41.8 nM
same,IC50,second compound 10 µM,76.4 nM
same,"viability, T/C",[1],66.5%
same,"viability, T/C",[2],41.4%
same,"viability, T/C",[3],31.7%
same,"viability, T/C",[4],37.7%
same,"viability, T/C",[5],40.8%
same,"viability, T/C",[6],36.6%
same,"viability, T/C",[7],66%
same,"viability, T/C",[8],43.7%
same,"viability, T/C",[9],46.8%
same,"viability, T/C",[10],38%
same,"viability, T/C",[11],42.8%
same,"viability, T/C",[12],43.5%
same,"viability, T/C",[13],70.5%
same,"viability, T/C",[14],42.3%
same,"viability, T/C",[15],41.2%
same,"viability, T/C",[16],42%
same,"viability, T/C",[17],35.2%
same,"viability, T/C",[18],35.8%
same,"viability, T/C",[19],76.9%
same,"viability, T/C",[20],44.1%
same,"viability, T/C",[21],33.5%
same,"viability, T/C",[22],33.7%
same,"viability, T/C",[23],49.9%
same,"viability, T/C",[24],40.3%
same,"viability, T/C",[25],59.1%
same,"viability, T/C",[26],43%
same,"viability, T/C",[27],37.1%
same,"viability, T/C",[28],41.1%
same,"viability, T/C",[29],42.5%
same,"viability, T/C",[30],37.6%
same,"viability, T/C",[31],72.8%
same,"viability, T/C",[32],44.2%
same,"viability, T/C",[33],34.1%
same,"viability, T/C",[34],39.8%
same,"viability, T/C",[35],32.9%
same,"viability, T/C",[36],48.1%
O=c1[nH]cc(F)c(=O)[nH]1 + Cc1cccc(N(C)C(=O)C2C(O)CCN2c2nc(C)cc(C(F)(F)F)c2C#N)c1,IC50,second compound 0.0316 µM,> 10000 nM
same,IC50,second compound 0.1 µM,> 10000 nM
same,IC50,second compound 0.316 µM,> 10000 nM
same,IC50,second compound 1 µM,> 10000 nM
same,IC50,second compound 3.16 µM,> 10000 nM
same,IC50,second compound 10 µM,> 10000 nM
same,"viability, T/C",[1],115%
same,"viability, T/C",[2],88%
same,"viability, T/C",[3],105%
same,"viability, T/C",[4],97.3%
same,"viability, T/C",[5],76.1%
same,"viability, T/C",[6],73%
same,"viability, T/C",[7],105%
same,"viability, T/C",[8],92.4%
same,"viability, T/C",[9],96%
same,"viability, T/C",[10],94.8%
same,"viability, T/C",[11],88.1%
same,"viability, T/C",[12],81.2%
same,"viability, T/C",[13],111%
same,"viability, T/C",[14],118%
same,"viability, T/C",[15],106%
same,"viability, T/C",[16],99.3%
same,"viability, T/C",[17],98.9%
same,"viability, T/C",[18],67.6%
same,"viability, T/C",[19],112%
same,"viability, T/C",[20],99.7%
same,"viability, T/C",[21],98.2%
same,"viability, T/C",[22],92.3%
same,"viability, T/C",[23],88%
same,"viability, T/C",[24],68.1%
same,"viability, T/C",[25],114%
same,"viability, T/C",[26],103%
same,"viability, T/C",[27],89.1%
same,"viability, T/C",[28],114%
same,"viability, T/C",[29],90.3%
same,"viability, T/C",[30],65.2%
same,"viability, T/C",[31],103%
same,"viability, T/C",[32],98%
same,"viability, T/C",[33],93.4%
same,"viability, T/C",[34],87%
same,"viability, T/C",[35],80.9%
same,"viability, T/C",[36],69.3%

# — PubChem BioAssay AID1963849 (Molecular Pharmacology Branch, DTP, NCI, 2024)
